The test system of this experiment is Klebsiella pneumoniae (ATCC BAA2146 NDM-1+). Nature of the experiment: Neutropenic mouse thigh model of K. pneumoniae infection. The class given is in vivo, mouse (CD1). The following applies: IV 2X daily; for Group Ave. Log 10 cfu/g / Group Average (cfu/g), thigh tissue burden / Log reduction from vehicle: 24 h post infection; for No. Sterilised (5 or less colonies detected on neat plate): n = 12 thighs. The source says:
Mice used in this study were supplied by Charles River UK and were specific pathogen free. The strain of mouse used was CD1, which is a well characterized outbred strain. Mice were 16-18 g on receipt at Euprotec's facility and were allowed to acclimatize for 7 days (target weight at the start of the experiment 22-25 g).
Klebsiella pneumoniae (ATCC BAA2146 NDM-1^+ (blandm) was used throughout the study.
In this study, 6 mice were used in each treatment group. • b) Immunosuppression
Mice were rendered temporarily neutropenic by immunosuppression with cyclophosphamide at 150 mg/kg four days before infection and 100 mg/kg one day before infection by intraperitoneal injection. The immunosuppression regime leads to neutropenia starting 24 hours post administration which continues throughout the study. • c) Infection
Antibacterial treatment was initiated 2 hours post infection (Table 3) and was administered twice (exactly 12 hours apart). An aliquot of 4% CHD-FA stock solution as adjusted to pH 5 with 10 M sodium hydroxide solution then diluted either 1:2 or 1:8 with 0.9% saline to give a dosing solution of 2% (200 mg/kg) and 0.5% (50 mg/kg) CHD-FA respectively.
Colistin was diluted in 0.9% saline to give a dosing solution of 4 mg/ml (40 mg/kg). Meropenem was diluted in 0.9% saline to give a dosing solution of 3 mg/ml (30 mg/kg). The vehicle was 0.9% saline. Following reconstitution, the suspensions were vortexed to ensure complete dissolution.
CHD-FA was administered by gavage, whereas Colistin, Meropenem and the vehicle were administered IV at 10 ml/kg (requiring individual mice to be administered ˜0.25 ml/dose). • e) Endpoints
24 hours post infection, the clinical condition of all animals was assessed prior to them being humanely euthanized. Animal weight was determined before both thighs were removed and weighed individually. Individual thigh tissue samples were homogenized in ice cold sterile phosphate buffered saline. Thigh homogenates were then quantitatively cultured on to CLED agar and incubated at 37° C. for 24 hrs and colonies counted daily. • f) Statistical Analysis
Quantitative thigh tissue burden data for CHD-FA were analysed using the statistical test Kruskal Wallis test (corrected for multiple comparisons) and compared to Colistin, Meropenem and vehicle monotherapy, plus Colistin/CHD-FA and Meropenem/CHD-FA combinations.

From patent US9265744B2, “Fulvic acid and antibiotic combination for the inhibition or treatment of multi-drug resistant bacteria” (NATRACINE UK LIMITED, priority 2012, dated 2016) come the findings set out here.

Consider `C[C@@H](O)[C@H]1C(=O)N2C(C(=O)O)=C(S[C@@H]3CN[C@H](C(=O)N(C)C)C3)[C@H](C)[C@H]12` [Meropenem], for which, where the note is “Meropenem 30 mg/kg”, the “Group Ave. Log 10 cfu/g” value worked out at 9.67 Log 10 cfu/g; the “Group Average (cfu/g), thigh tissue burden” value was found to be 4729505542 cfu/g; the “Log reduction from vehicle” value is recorded as 1.74 log 10; the “No. Sterilised (5 or less colonies detected on neat plate)” value worked out at 0.
Colistin: where the note is “Colistin 40 mg/kg”, the “Group Ave. Log 10 cfu/g” value was determined as 9.14 Log 10 cfu/g; the “Group Average (cfu/g), thigh tissue burden” value came to 1388363808 cfu/g; the “Log reduction from vehicle” value was determined as 2.27 log 10; the “No. Sterilised (5 or less colonies detected on neat plate)” value amounted to 0.
